Assay results published in paper PMC4392110, “Atom-Atom-Path similarity and Sphere Exclusion clustering: tools for prioritizing fragment hits” (Journal of Cheminformatics, 2015).

Molecular target: MAP4K4 kinase (Homo sapiens, UniProt O95819)
Assay: MAP4K4 fragment screen, KD of fragment hits
Type: binding
Settings: for Kd: fragment screening hits, read-out: MAP4K4 inact KD; for LE difference to the cluster seed: difference in LE to cluster seed (C02M01 or C12M01); for Ligand Efficiency: LE computed as 1.4*pKd/nHeavyAtoms
Description: Utilizing additional fragment collections, we expanded our previous ~2,500 compound screen of the MAP4K4 kinase by performing an additional screen of 8,000 compounds [28]. […] AAP similarity and DISE clustering were used to cluster the combined hit set fragments. The fragment hits were sorted according to their LE, followed by the cluster seed selection. The AAP similarity threshold in this step was 0.3. The remaining hits were assigned to the most similar cluster seed.

Sequence of MAP4K4 kinase (O95819 whole entry, the tested form may be a part): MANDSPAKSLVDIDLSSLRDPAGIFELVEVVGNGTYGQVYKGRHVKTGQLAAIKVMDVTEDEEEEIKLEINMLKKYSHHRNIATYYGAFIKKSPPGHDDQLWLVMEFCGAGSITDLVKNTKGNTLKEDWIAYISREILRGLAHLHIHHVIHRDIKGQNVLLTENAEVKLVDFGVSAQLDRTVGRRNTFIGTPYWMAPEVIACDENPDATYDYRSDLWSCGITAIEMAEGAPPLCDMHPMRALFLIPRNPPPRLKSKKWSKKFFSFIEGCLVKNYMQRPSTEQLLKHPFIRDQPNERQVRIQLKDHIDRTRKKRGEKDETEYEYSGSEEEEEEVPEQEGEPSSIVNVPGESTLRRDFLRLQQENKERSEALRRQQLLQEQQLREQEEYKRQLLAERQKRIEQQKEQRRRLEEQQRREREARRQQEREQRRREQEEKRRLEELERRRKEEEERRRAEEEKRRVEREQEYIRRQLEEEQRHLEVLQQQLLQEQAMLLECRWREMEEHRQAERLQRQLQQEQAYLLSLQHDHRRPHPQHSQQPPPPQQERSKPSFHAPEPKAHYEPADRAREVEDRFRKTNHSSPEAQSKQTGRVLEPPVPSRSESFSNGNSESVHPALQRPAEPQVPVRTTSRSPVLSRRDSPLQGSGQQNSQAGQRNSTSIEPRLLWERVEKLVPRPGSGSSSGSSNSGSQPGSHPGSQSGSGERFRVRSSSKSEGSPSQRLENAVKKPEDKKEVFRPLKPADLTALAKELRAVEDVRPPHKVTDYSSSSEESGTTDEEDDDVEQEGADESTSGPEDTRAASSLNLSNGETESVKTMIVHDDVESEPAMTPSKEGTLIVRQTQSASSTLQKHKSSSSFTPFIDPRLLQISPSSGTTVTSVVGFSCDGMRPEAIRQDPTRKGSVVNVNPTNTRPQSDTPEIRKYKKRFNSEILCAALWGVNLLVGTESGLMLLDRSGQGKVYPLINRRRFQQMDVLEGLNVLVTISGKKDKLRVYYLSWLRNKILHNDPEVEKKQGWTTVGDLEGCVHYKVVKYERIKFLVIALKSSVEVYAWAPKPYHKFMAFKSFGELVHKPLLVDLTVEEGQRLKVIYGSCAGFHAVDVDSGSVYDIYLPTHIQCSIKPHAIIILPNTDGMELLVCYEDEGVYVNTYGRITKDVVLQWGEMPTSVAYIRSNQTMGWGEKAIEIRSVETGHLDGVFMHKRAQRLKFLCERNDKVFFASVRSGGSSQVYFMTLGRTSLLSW

Compound | Kd | LE difference to the cluster seed | Ligand Efficiency
Nc1ncncc1-c1ccc(O)cc1 [C02M01] | 0.55 µM | – | –
Nc1ncncc1-c1ccccc1 [C02M02] | 28 µM | 0.13 | –
Nc1ncncc1-c1ccc(Cl)cc1 [C02M03] | 35.5 µM | 0.17 | –
Nc1ncnc(Cl)c1-c1ccccc1 [C02M04] | 367 µM | – | –
OCc1ccc(-c2cncnc2)cc1 [C02M05] | 505 µM | – | –
CCc1nc(N)nc(N)c1-c1ccc(Cl)cc1 [C02M06] | 930 µM | – | –
c1ccc(-c2n[nH]c3ccccc23)cc1 [C12M01] | 3.4 µM | – | 0.5
Nc1n[nH]c2cc(-c3ccccc3)ccc12 [C12M02] | 2.1 µM | – | 0.49
Nc1ccc2[nH]nc(-c3ccccc3)c2c1 [C12M03] | 16.8 µM | 0.09 | 0.41
Nc1c(-c2ccccc2)nn2ccccc12 [C12M05] | 276 µM | – | 0.31
